The nature of data set [1]: In vivo metabolism study, rat oral/tail vein injection model. The following applies: for half-life: read-out: t½ (converted); for bioavailability: oral 5 mg/kg vs intravenous 0.5 mg/kg, dose conversion, read-out: F % (bioavailability). The procedure:
Male SD rats, weighing 200±20 g, SPF grade, were purchased from SPF Biotechnology Co., Ltd.
(§1) TSQ Quantum liquid chromatography-mass spectrometer (LC/MS/MS) from Finnigan Inc, USA, chromatography column: TSKgel Amide-80 column (2.0 mm I.D.×100 mm, 5 μm); mobile phase: acetonitrile-water-formic acid (50:50:0.1); flow rate: 0.2 mL/min; injection volume: 5 μL; column temperature: room temperature. Ionization source is electrospray ionization (ESI) with 4.8 KV of spray voltage; capillary temperature (TEM): 300° C.; sheath gas: N2, flow rate: 10 psi; auxiliary gas: N2, flow rate: 1 psi; collision gas (CID): Ar at a pressure of 1.5 mTorr. The mass spectrometry scanning method was selective reaction monitoring (SRM) and detected by positive ion method. The internal standard was a […] solution of aconitine in acetonitrile, the minimum limit of quantification was 5 ng/mL, and the correlation coefficient was >0.99.
Formulation of a solution for intravenous administration: approximately 5 mg of each test drug was accurately weighed, and dissolved in 50 μL of DMSO. To the solution was added an appropriate amount of 40% PEG400 aqueous solution to prepare a 0.5 mg/mL solution. The administration volume was 0.2 mL/200 g body weight, and the dose was 0.5 mg/kg body weight according to concentration conversion.
Formulation of a solution for i.g. administration: approximately 5 mg of each test drug was accurately weighed, and suspended and dispersed with a 1% aqueous solution of HPMC to prepare a 1 mg/mL suspension. The administration volume was 1 mL/200 g body weight, and the dose was 5 mg/kg body weight in terms of concentration according to concentration conversion.
Rats were randomly divided into 4 groups of 5 rats each. Oral gavage and tail vein administration were carried out according to the above dosages. At 2 min, 5 min, 15 min, 30 min, 1 h, 1.5 h, 2 h, and 3 h after administration, blood was collected from an orbit, and centrifuged at 8000 rpm for 10 min. 50 μL of plasma was weighed, and added with 50 μL of internal standard and 150 μL of acetonitrile. The mixture was mixed by shaking, and centrifuged at 18000 rpm for 10 min. The supernatant was taken for LC/MS/MS injection and determination. The determined data were analyzed using a DAS pharmacokinetic program to calculate the main pharmacokinetic parameters.

A further data set relates to Kunming mice. The data set is described as follows: Forced mouse swimming test. It counts as in vivo. As to conditions: 10 mg/kg intraperitoneal, 3 days, last 4 of 6 min. The method, then:
Animals: Kunming mice, male, body weight 18-22 g, SPF grade; SD rats, male, body weight 150-180 g, SPF grade. The test was carried out after acclimatization, and the animal was fasted for 12 hours before the test.
All drugs for the test were suspended and dispersed in a 1% aqueous solution of hydroxypropyl methylcellulose (HPMC), and shaken well before use. […] The doses for administration were all 10 mg/kg. For the concentration and volume for administration, see J Psychiatry Neurosci 2004; 29(2):126-133. The mice were intraperitoneally administered in a volume of 0.5 mL/20 g; and the rats were administered by i.g. in a volume of 2 mL/100 g.
Animal grouping and administration method were the same as those in the tail suspension test in mice. The mice were placed in a round glass vessel with a height of 20 cm, an inner diameter of 12 cm, a water depth of 10 cm and a water temperature of 25° C.

Another data set concerns SD rats. The data set is described as follows: Anxiety behavior model of repeatedly administrated rat: novelty-suppressed feeding test. It counts as in vivo. As to conditions: D12. The method, then: The requirements for test animals, drug formulation and administration were the same as those of the rat chronic mild stress model.
Instruments: Vogel drinking anxiety device for rat and O-maze device for rat were manufactured by Shanghai XinRuan Company. The rat feeding chamber was a home-made white plastic box (60×45×25 cm).
The rats were administrated continuously by i.g. once a day. A novelty-suppressed feeding test, a Vogel drinking conflict test, and an O-maze test were performed on a different day, respectively. Each behavior test was performed at 9:00-12:00, and the administration time was 16:00-17:00. The test process was as follows: D12, novelty-suppressed feeding test (animals were fasted for 48 hours before the test); D18, Vogel drinking conflict test (animals were banned from water for 48 hours before the test); D21, O-maze test.
Common paddings with a thickness of 1.5 cm were placed at the floor of the rat feeding chamber, and six equal-sized food pellets were placed in the center. During the test, the rats were individually placed in a fixed position of the feeding chamber, and observed for 5 minutes. The time from rat entry to the start of biting or chewing the food was recorded with a stopwatch.

Data set [2] can be described thus: In vitro metabolism study, human liver microsomal incubation system. In kind it is in vitro ADME. The method, then:
as §1
Approximately 10 mg of each sample to be tested was accurately weighed, dissolved in 0.1 mL of DMSO, and serially diluted with purified water to a 10 μM, 1 μM standard stock solution. An ice bath was operated and the incubation system for detection was formulated according to Table 4. NADPH was added to the incubation system to start the reaction, and then 50 μL was immediately added to 150 μL acetonitrile as a zero-time sample and a 1 μM standard curve sample. Another 1 μM standard stock solution was added to the incubation system, and then 50 μL was immediately added to 150 μL acetonitrile as a 0.1 μM standard curve sample. […] Each sample was shaken, and centrifuged at 18000 g for 10 min. The supernatant was taken for LC/MS/MS injection and determination.
For orientation: Liver microsomes are a subcellular fraction often used to study metabolism.

[3] abbreviates: incubation time 0 min, 1 μM, 1 mg/mL microsome, 37° C.

Read-outs that look alike come from different tables or passages of the source.

In general, AUC(0-t) refers to exposure summed from dosing to a finite time, without extrapolation to infinity. The bioavailability is the share of a dose that reaches the circulation, judged against a reference dose that is usually intravenous. Regarding `COc1ccc2cccc(CCNC(C)=O)c2c1` [Agomelatine, reference compound], the half-life is 20.4 min in data set [1] (male, Sprague-Dawley (SD), plasma, intravenous injection 0.5 mg/kg) and 40.2 min in data set [1] (male, Sprague-Dawley (SD), plasma, oral 5 mg/kg). In addition, the AUC(0-t) stood at 102 ng·h/mL in data set [1] (male, Sprague-Dawley (SD), plasma, iv, 0.5 mg/kg, intravenous injection 0.5 mg/kg, read-out: AUC(0-t)); 51.6 ng·h/mL in data set [1] (male, Sprague-Dawley (SD), plasma, po, 5 mg/kg, oral 5 mg/kg, read-out: AUC(0-t)); 51.57 ng·h/mL in data set [1] (oral 5 mg/kg). Besides, in data set [1] (male, Sprague-Dawley (SD), plasma), the bioavailability was 5.05%. The compound also had an Immobility time with Kunming mice of 113.5 ± 26.6 s. Moreover, the Feeding latency in the data set with SD rats (10 mg/kg i.g. once a day) came to 208 ± 26 s; in the data set on SD rats (20 mg/kg i.g. once a day), 163 ± 25 s; in the data set with SD rats (40 mg/kg i.g. once a day) it was 124 ± 25 s. Also, the “Concentration measured at incubation time point” value was determined as 999 ± 59 nM in data set [2] (setting [3]), 539 ± 19 nM in data set [2] (incubation time 5 min) and 9 ± 5 nM in data set [2] (incubation time 15 min).

As for `[2H]C([2H])([2H])Oc1cc2c(CCNC(C)=O)cccc2cc1Cl` [Example 1, N-(2-(6-chloro-7-deuteromethoxy-naphthalen-1-yl)ethyl)acetamide], the half-life was 28.8 min in data set [1] (male, SD, plasma, intravenous injection 0.5 mg/kg) and 29.4 min in data set [1] (male, SD, plasma, oral 5 mg/kg). Further, the AUC(0-t) in data set [1] (male, SD, plasma, iv, 0.5 mg/kg, intravenous injection 0.5 mg/kg, read-out: AUC(0-t)) was found to be 48.9 ng·h/mL; in data set [1] (male, SD, plasma, po, 5 mg/kg, oral 5 mg/kg, read-out: AUC(0-t)), 249 ng·h/mL; in data set [1] (oral 5 mg/kg), 248.83 ng·h/mL. Also, the bioavailability in data set [1] (male, SD, plasma) turned out to be 50.9%. In the data set on Kunming mice, this compound showed an Immobility time of 73.0 ± 18.2 s. The Feeding latency in the data set with SD rats (5 mg/kg i.g. once a day) stood at 232 ± 23 s; with SD rats (10 mg/kg i.g. once a day) it was 141 ± 17 s; with SD rats (20 mg/kg i.g. once a day) it was 124 ± 18 s; with SD rats (40 mg/kg i.g. once a day), 120 ± 14 s. Also, the “Metabolic stability in human liver microsome (comparison)” value in data set [2] (compared among examples and controls) was “highest metabolic stability”. Besides, the “Concentration measured at incubation time point” value in data set [2] (setting [3]) was found to be 1001 ± 19 nM; in data set [2] (incubation time 5 min) it was 793 ± 108 nM; in data set [2] (incubation time 15 min) it was 194 ± 46 nM; in data set [2] (incubation time 30 min), 110 ± 88 nM.

The record behind these values is patent US11980598B2, “N-(2-(substituted-naphth-1-yl)ethyl) substituted amide compound, preparation and uses thereof” (BEIJING GREATWAY PHARMACEUTICAL TECHNOLOGY CO., LTD., priority 2017, dated 2024).
